Test results taken from patent publication US10294202B2, “Pyrrolidinones as herbicides” (FMC Corporation, priority 2013, dated 2019).

Experiments:
[1] = test system: foxtail, giant; test: Test C pre-/postemergence herbicide test; type: in vivo, Setaria faberii
Method in brief: (§1)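 Visual rating, 0 (no effect) to 100 (complete control), versus untreated controls after 13 to 15 days in the greenhouse. Pre: seeds in loam/sand, sprayed at planting. Post: 1- to 4-leaf plants (2 to 18 cm) in peat-based mix. Compounds in non-phytotoxic solvent plus surfactant.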

[2] = test system: barnyardgrass; test: Test C pre-/postemergence herbicide test; type: in vivo, Echinochloa crus-galli
Method in brief: as §1

[3] = test system: ragweed; test: Test A pre-/postemergence herbicide test; type: in vivo, Ambrosia elatior
Method in brief: (§2)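 Seeds sown in loam soil/sand blend received a preemergence directed soil spray of test chemical in non-phytotoxic solvent with surfactant; postemergence plants (2–10 cm, one- to two-leaf stage) were sprayed with the same formulation. After about 10 days in greenhouse, injury was rated visually versus untreated controls, 0 (no effect) to 100 (complete control).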

[4] = test system: ducksalad; test: Test B flooded paddy test; type: in vivo, Heteranthera limosa; details: Flood, scale of 0 to 100 where 0 is no effect and 100 is complete control
Method in brief: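 Plants were grown to the 2-leaf stage, then pots were flooded to 3 cm above the soil and compound was applied directly into the paddy water, with that depth held throughout. After 13 to 15 days in a greenhouse, injury was rated visually against untreated controls on a 0 to 100 scale (100 = complete control).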

[5] = test system: morningglory; test: Test C pre-/postemergence herbicide test; type: in vivo, Ipomoea coccinea
Method in brief: as §1

[6] = test system: wheat; test: Test A pre-/postemergence herbicide test; type: in vivo, Triticum aestivum; details: Postemergence
Method in brief: as §2

[7] = test system: blackgrass; test: Test A postemergence herbicide test; type: in vivo, Alopecurus myosuroides
Method in brief: (§3)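 Plants at the one- to two-leaf stage, 2–10 cm tall, grown in loam/sand pots, received postemergence sprays of the test chemicals. After about 10 days in the greenhouse, injury was scored visually against untreated controls on a 0–100 scale (0 none, 100 complete control).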

[8] = test system: galium; test: Test A postemergence herbicide test; type: in vivo, Galium aparine
Method in brief: as §3

[9] = test system: oilseed rape; test: Test C pre-/postemergence herbicide test; type: in vivo, Brassica napus
Method in brief: as §1

[10] = Postemergence, 31 g ai/ha, scale 0 to 100 (0 no effect, 100 complete control)
[11] = Postemergence, 62 g ai/ha, scale 0 (no effect) to 100 (complete control)
[12] = Postemergence, 125 g ai/ha, scale 0 to 100 (0 no effect, 100 complete control)
[13] = Postemergence, 250 g ai/ha, scale 0 to 100 (0 no effect, 100 complete control)
[14] = Preemergence, 31 g ai/ha, scale 0 to 100, 0 is no effect and 100 is complete control
[15] = Preemergence, 62 g ai/ha, scale 0 to 100 (0 no effect, 100 complete control)
[16] = Preemergence, 125 g ai/ha, scale 0 to 100
[17] = Preemergence, 125 g ai/ha, scale 0 to 100 (0 no effect, 100 complete control)
[18] = Postemergence, 125 g ai/ha, visual rating on 0 to 100 scale (0 no effect, 100 complete control), approx. 10 days
[19] = Preemergence, 125 g ai/ha, 0 to 100 scale where 0 is no effect and 100 is complete control
[20] = Preemergence, 500 g ai/ha, visual rating on 0 to 100 scale (0 no effect, 100 complete control)
[21] = 125 g ai/ha, visual rating on 0 to 100 scale (0 no effect, 100 complete control), approx. 10 days
[22] = 500 g ai/ha, 0 to 100 scale (0 no effect, 100 complete control)
[23] = Preemergence, 31 g ai/ha, scale 0 to 100

Compound: O=C1NCC(c2cccc(Br)c2)C1C(=O)Nc1ccc(F)c(F)c1F (centres unmarked) [Compound 310]
- Plant response rating, Foxtail, Giant [1, 10]: 0
- Plant response rating, Foxtail, Giant [1, 11]: 5
- Plant response rating, Foxtail, Giant [1, 12]: 30
- Plant response rating, Foxtail, Giant [1, 13]: 70
- Foxtail, Giant plant response rating [1, 14]: 80
- Foxtail, Giant plant response rating [1, 15]: 85
- Plant response rating, Foxtail, Giant [1, 16]: 90
- Plant response rating (scale of 0 to 100), Foxtail, Giant ([1]; Preemergence, 250 g ai/ha): 90
- Plant response rating, Barnyardgrass [2, 10]: 5
- Plant response rating, Barnyardgrass [2, 11]: 25
- Plant response rating, Barnyardgrass [2, 12]: 50
- Plant response rating, Barnyardgrass [2, 13]: 75
- Barnyardgrass plant response rating [2, 14]: 50
- Barnyardgrass plant response rating [2, 15]: 90
- Plant response rating, Barnyardgrass [2, 17]: 90
- Plant response rating (scale of 0 to 100; 0 is no effect, 100 is complete control), Barnyardgrass ([2]; Preemergence, 250 g ai/ha): 95
- Plant response rating, Ragweed [3, 18]: 20
- Plant response rating, Ragweed ([3]; Postemergence, 500 g ai/ha, 0 to 100 scale (0 no effect, 100 complete control)): 30
- Plant response rating, Ragweed [3, 19]: 0
- Ragweed plant response rating [3, 20]: 0
- Plant response rating, Ducksalad ([4]; 500 g ai/ha): 100
- Plant response rating, Morningglory [5, 10]: 10
- Plant response rating, Morningglory [5, 11]: 0
- Plant response rating, Morningglory [5, 12]: 10
- Plant response rating, Morningglory [5, 13]: 70
- Morningglory plant response rating [5, 14]: 0
- Morningglory plant response rating [5, 15]: 0
- Plant response rating, Morningglory [5, 16]: 5
- Plant response rating (scale of 0 to 100), Morningglory ([5]; Preemergence, 250 g ai/ha): 5
- Plant response rating, Wheat [6, 21]: 30
- Plant response rating, Wheat [6, 22]: 50
- Plant response rating, Blackgrass [7, 21]: 30
- Plant response rating, Blackgrass [7, 22]: 50
- Plant response rating, Galium [8, 21]: 20
- Plant response rating, Galium [8, 22]: 20
- Plant response rating, Oilseed Rape [9, 10]: 0
- Plant response rating, Oilseed Rape [9, 11]: 0
- Plant response rating, Oilseed Rape [9, 12]: 0
- Plant response rating, Oilseed Rape [9, 13]: 40
- Oilseed Rape plant response rating [9, 14]: 0
- Oilseed Rape plant response rating [9, 15]: 5
- Plant response rating, Oilseed Rape [9, 16]: 40
- Plant response rating (scale of 0 to 100), Oilseed Rape ([9]; Preemergence, 250 g ai/ha): 85

Compound: O=C1NCC(c2ccc(F)c(F)c2)C1C(=O)Nc1ccc(F)c(F)c1F (centres unmarked) [Compound 346]
- Plant response rating, Foxtail, Giant [1, 10]: 20
- Plant response rating, Foxtail, Giant [1, 11]: 0
- Plant response rating, Foxtail, Giant [1, 12]: 40
- Plant response rating, Foxtail, Giant [1, 13]: 85
- Foxtail, Giant plant response rating [1, 15]: 90
- Plant response rating, Foxtail, Giant [1, 16]: 98
- Plant response rating (scale of 0 to 100), Foxtail, Giant ([1]; Preemergence, 250 g ai/ha): 98
- Plant response rating, Foxtail, Giant [1, 23]: 90
- Plant response rating, Barnyardgrass [2, 10]: 0
- Plant response rating, Barnyardgrass [2, 11]: 0
- Plant response rating, Barnyardgrass [2, 12]: 30
- Plant response rating, Barnyardgrass [2, 13]: 60
- Barnyardgrass plant response rating [2, 15]: 70
- Plant response rating, Barnyardgrass [2, 17]: 95
- Plant response rating (scale of 0 to 100; 0 is no effect, 100 is complete control), Barnyardgrass ([2]; Preemergence, 250 g ai/ha): 98
- Plant response rating, Barnyardgrass [2, 23]: 50
- Plant response rating, Ragweed [3, 18]: 0
- Plant response rating, Ragweed [3, 19]: 0
- Ragweed plant response rating [3, 20]: 0
- Plant response rating, Ducksalad ([4]; 1000 g ai/ha): 100
- Plant response rating, Morningglory [5, 10]: 0
- Plant response rating, Morningglory [5, 11]: 5
- Plant response rating, Morningglory [5, 12]: 15
- Plant response rating, Morningglory [5, 13]: 5
- Morningglory plant response rating [5, 15]: 0
- Plant response rating, Morningglory [5, 16]: 30
- Plant response rating (scale of 0 to 100), Morningglory ([5]; Preemergence, 250 g ai/ha): 0
- Plant response rating, Morningglory [5, 23]: 0
- Plant response rating, Wheat [6, 21]: 0
- Plant response rating, Blackgrass [7, 21]: 20
- Plant response rating, Blackgrass [7, 22]: 50
- Plant response rating, Galium [8, 21]: 30
- Plant response rating, Oilseed Rape [9, 10]: 0
- Plant response rating, Oilseed Rape [9, 11]: 0
- Plant response rating, Oilseed Rape [9, 12]: 0
- Plant response rating, Oilseed Rape [9, 13]: 0
- Oilseed Rape plant response rating [9, 15]: 0
- Plant response rating, Oilseed Rape [9, 16]: 50
- Plant response rating (scale of 0 to 100), Oilseed Rape ([9]; Preemergence, 250 g ai/ha): 60
- Plant response rating, Oilseed Rape [9, 23]: 0
